Drawing on patent US20090203737A1, “Pyrrole Derivatives as Positive Allosteric Modulators of Metabotropic Receptors” (priority 2005, published 2009), this text covers EC50 for 28 molecules.

One may read the EC50 as the concentration at which the effect is half-maximal.

Each structure is given as a SMILES string. Several values for one entry are separate records, joined by “and”; a condition that tells them apart may be missing. Identical values can stand only once.

For the test, the target named is T1, rat mGluR5 receptor (Rattus norvegicus, UniProt P31424).
T1 construct: expressed in transfected cells
T1 sequence (P31424 21-1171 isoform P31424-2 limits assumed): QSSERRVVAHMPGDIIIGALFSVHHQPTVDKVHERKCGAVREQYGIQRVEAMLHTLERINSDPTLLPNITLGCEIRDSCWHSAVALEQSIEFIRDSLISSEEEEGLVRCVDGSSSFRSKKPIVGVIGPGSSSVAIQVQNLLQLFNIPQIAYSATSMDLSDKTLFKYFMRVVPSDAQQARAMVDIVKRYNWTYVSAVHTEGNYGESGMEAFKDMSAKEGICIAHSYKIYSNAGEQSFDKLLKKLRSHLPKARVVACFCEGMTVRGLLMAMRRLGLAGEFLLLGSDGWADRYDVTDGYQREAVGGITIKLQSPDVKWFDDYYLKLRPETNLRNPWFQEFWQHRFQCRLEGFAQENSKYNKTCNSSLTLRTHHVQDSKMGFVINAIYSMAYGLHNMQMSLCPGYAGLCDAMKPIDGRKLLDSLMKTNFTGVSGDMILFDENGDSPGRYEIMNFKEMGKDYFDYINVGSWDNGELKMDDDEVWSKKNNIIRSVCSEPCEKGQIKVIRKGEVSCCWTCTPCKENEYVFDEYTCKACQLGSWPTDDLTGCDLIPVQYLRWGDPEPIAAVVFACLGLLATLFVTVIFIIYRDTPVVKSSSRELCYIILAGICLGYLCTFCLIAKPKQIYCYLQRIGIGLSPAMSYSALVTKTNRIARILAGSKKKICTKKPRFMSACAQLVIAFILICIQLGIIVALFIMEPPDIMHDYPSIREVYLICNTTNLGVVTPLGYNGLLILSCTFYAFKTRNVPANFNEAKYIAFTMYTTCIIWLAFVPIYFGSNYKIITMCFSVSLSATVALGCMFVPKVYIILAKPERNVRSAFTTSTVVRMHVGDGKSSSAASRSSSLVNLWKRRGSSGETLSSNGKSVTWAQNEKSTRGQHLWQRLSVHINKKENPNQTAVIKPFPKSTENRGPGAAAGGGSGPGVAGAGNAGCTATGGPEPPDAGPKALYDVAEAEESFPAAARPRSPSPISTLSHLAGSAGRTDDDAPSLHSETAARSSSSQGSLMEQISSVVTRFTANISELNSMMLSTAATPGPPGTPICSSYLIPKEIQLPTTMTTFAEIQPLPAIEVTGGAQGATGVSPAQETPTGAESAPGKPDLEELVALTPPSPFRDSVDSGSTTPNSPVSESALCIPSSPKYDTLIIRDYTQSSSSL
The test can be described thus: mGluR5 assay on HEK-expressing rat mGluR5 (fluorescent cell based Ca2+ mobilization assay). Conditions: HEK-293 cells stably expressing rat mGluR5; no co-addition of glutamate; mean of at least three independent experiments in duplicate; read-out: Ca++ Flux (mean EC50). As for the experimental part: Positive functional expression of HEK-293 cells stably expressing rat mGluR5 receptor was determined by measuring intracellular Ca^2+ changes using a Fluorometric Imaging Plate Reader (FLIPR, Molecular Devices, Sunnyvale, Calif.) in response to glutamate or selective known mGluR5 agonists and antagonists. Rat mGluR5 RT-PCR products in HEK-293 cells were sequenced and found 100% identical to rat mGluR5 Genbank reference sequence (NM_017012). HEK-293 cells expressing rmGluR5 were maintained in media containing DMEM, dialyzed Fetal Bovine Serum (10%), Glutamax™ (2 mM), Penicillin (100 units/ml), Streptomycin (100 μg/ml), Geneticin (100 μg/ml) and Hygromycin-B (40 μg/ml) at 37° C./5% CO2.
After one day of incubation, cells were washed with assay buffer containing: 142 mM NaCl, 6 mM KCl, 1 mM […], 1 mM CaCl2, 20 mM HEPES, 1 g/L glucose, 0.125 mM sulfinpyrazone, pH 7.4. After 60 min of loading with 4 uM Fluo-4 (TefLabs, Austin, Tex.), the cells were washed three times with 50 μl of PBS Buffer and resuspended in 45 μl of assay Buffer. The plates were then transferred to a Fluorometric Imaging Plate Reader (FLIPR, Molecular Devices, Sunnyvale, Calif.) for the assessment of intracellular calcium flux. After monitoring the baseline fluorescence for 10 seconds, increasing concentrations of representative compound (from 0.01 to 60 μM) of the present invention diluted in Assay Buffer (15 μl of 4× dilutions) was added to the cell. The final DMSO concentration in the assay was 0.3%. In each experiment, fluorescence was then monitored as a function of time for 3 minutes and the data analyzed using Microsoft Excel and GraphPad Prism. Each data point was also measured two times.
Under these experimental conditions, this HEK-rat mGluR5 cell line is able to directly detect positive allosteric modulators without the need of co-addition of glutamate or mGluR5 agonist.
The concentration-response curves of representative compounds of the present invention were generated using the Prism GraphPad software (Graph Pad Inc, San Diego, USA). The curves were fitted to a four-parameter logistic equation:
(Y=Bottom+(Top−Bottom)/(1+10̂((LogEC50−X)*Hill Slope)
allowing determination of EC50 values.
The Table 1 below represents the mean EC50 obtained from at least three independent experiments of selected molecules performed in duplicate.
`O=C(c1ccc(F)cc1)N1CCCC(c2noc(-c3ncc[nH]3)n2)C1` (stereo not shown) [Example 17, (4-Fluoro-phenyl)-{3-[5-(1H-imidazol-2-yl)-[1,2,4]oxadiazol-3-yl]-piperidin-1-yl}-methanone]: the EC50 lay in the range of 1000 to 10000 nM.

With `O=C(c1ccc(F)cc1)N1CCC[C@H](c2nc(-c3cc4ccccc4[nH]3)no2)C1` [Example 16, (4-Fluoro-phenyl)-{(S)-3-[3-(1H-indol-2-yl)-[1,2,4]oxadiazol-5-yl]-piperidin-1-yl}-methanone], the EC50 was in the range of 1000 to 10000 nM.

As for `O=C(c1ccc(F)cc1)N1CCC[C@H](c2nc(-c3cc(Br)c[nH]3)no2)C1` [Example 45, {(S)-3-[3-(4-Bromo-1H-pyrrol-2-yl)-[1,2,4]oxadiazol-5-yl]-piperidin-1-yl}-(4-fluoro-phenyl)-methanone], the EC50 was below 1000 nM.

Turning to `Cc1c[nH]c(-c2noc([C@H]3CCCN(C(=O)c4ccc(F)nc4)C3)n2)c1` [Example 33, (6-Fluoro-pyridin-3-yl)-{(S)-3-[3-(4-methyl-1H-pyrrol-2-yl)-[1,2,4]oxadiazol-5-yl]-piperidin-1-yl}-methanone], the EC50 is below 1000 nM.

In the case of `O=C(c1ccc(F)nc1)N1CCC[C@H](c2noc(-c3cc(Cl)c[nH]3)n2)C1` [Example 40, {(S)-3-[5-(4-Chloro-1H-pyrrol-2-yl)-[1,2,4]oxadiazol-3-yl]-piperidin-1-yl}-(6-fluoro-pyridin-3-yl)-methanone], the EC50 was below 1000 nM.

Consider `O=C(c1ccc(F)cc1F)N1CCC[C@H](c2nc(-c3ccc[nH]3)no2)C1` [Example 2, (2,4-Difluoro-phenyl)-((S)-3-[3-(1H-pyrrol-2-yl)-[1,2,4]oxadiazol-5-yl]-piperidin-1-yl)-methanone], for which the EC50 is below 1000 nM.

Take `O=C(c1ccc(F)nc1)N1CCC[C@H](c2noc(-c3cc(F)c[nH]3)n2)C1` [Example 64, (6-Fluoro-pyridin-3-yl)-{(S)-3-[5-(4-fluoro-1H-pyrrol-2-yl)-[1,2,4]oxadiazol-3-yl]-piperidin-1-yl}-methanone]: the EC50 fell in the range of 1000 to 10000 nM.

Take `O=C(c1ccncc1F)N1CCC[C@H](c2nc(-c3cc(F)c[nH]3)no2)C1` [Example 70, (3-Fluoro-pyridin-4-yl)-{(S)-3-[3-(4-fluoro-1H-pyrrol-2-yl)-[1,2,4]oxadiazol-5-yl]-piperidin-1-yl}-methanone]: the EC50 lay in the range of 1000 to 10000 nM.

Take `O=C(c1ccncc1F)N1CCC[C@H](c2nc(-c3cc(Br)c[nH]3)no2)C1` [Example 69, {(S)-3-[3-(4-Bromo-1h-pyrrol-2-yl)-[1,2,4]oxadiazol-5-yl]-piperidin-1-yl}-(3-fluoro-pyridin-4-yl)-methanone]: the concentration for a half-maximal effect (EC50) fell in the range of 1000 to 10000 nM.

As for `Cc1c[nH]c(-c2noc([C@H]3CCCN(C(=O)c4ccncc4F)C3)n2)c1` [Example 71, (3-Fluoro-pyridin-4-yl)-{(S)-3-[3-(4-methyl-1H-pyrrol-2-yl)-[1,2,4]oxadiazol-5-Yl]-piperidin-1-yl}-methanone], the EC50 is 1000 to 10000 nM.

Turning to `O=C(c1ccc(F)nc1)N1CCC[C@H](c2nc(-c3cc(Br)c[nH]3)no2)C1` [Example 46, {(S)-3-[3-(4-Bromo-1H-pyrrol-2-yl)-[1,2,4]oxadiazol-5-yl]-piperidin-1-yl}-(6-fluoro-pyridin-3-yl)-methanone], the EC50 was below 1000 nM.

Take `Cc1oncc1C(=O)N1CCC[C@H](c2noc(-c3cc(Cl)c[nH]3)n2)C1` [Example 42, {(S)-3-[5-(4-Chloro-1H-pyrrol-2-yl)-[1,2,4]oxadiazol-3-yl]-piperidin-1-yl}-(5-methyl-isoxazol-4-yl)-methanone]: the EC50 is below 1000 nM.

As to `O=C(c1ccc(F)c(F)c1)N1CCCC(c2noc(-c3ccn[nH]3)n2)C1` (stereo not shown) [Example 14, (3,4-Difluoro-phenyl)-{3-[5-(2H-pyrazol-3-yl)-[1,2,4]oxadiazol-3-yl]-piperidin-1-yl}-methanone], the EC50 was above 10000 nM.

For `O=C(c1ccc(F)nc1)N1CCC[C@H](c2noc(-c3cc(Br)c[nH]3)n2)C1` [Example 44, {(S)-3-[5-(4-Bromo-1H-pyrrol-2-yl)-[1,2,4]oxadiazol-3-yl]-piperidin-1-yl}-(6-fluoro-pyridin-3-yl)-methanone], the EC50 is < 1000 nM and > 10000 nM.

In the case of `O=C(c1ccnc(F)c1)N1CCC[C@H](c2noc(-c3cc(F)c[nH]3)n2)C1` [Example 60, (2-Fluoro-pyridin-4-yl)-{(s)-3-[5-(4-fluoro-1H-pyrrol-2-yl)-[1,2,4]oxadiazol-3-yl]-piperidin-1-yl}-methanone], the EC50 is below 1000 nM.

Regarding `Cc1c[nH]c(-c2nc([C@H]3CCCN(C(=O)c4ccnc(F)c4)C3)no2)c1` [Example 30, (2-Fluoro-pyridin-4-yl)-{(S)-3-[5-(4-methyl-1H-pyrrol-2-yl)-[1,2,4]oxadiazol-3-yl]-piperidin-1-yl}-methanone], the EC50 is below 1000 nM.

Consider `O=C(c1ccc(F)cc1)N1CCC[C@H](c2nc(-c3ncc[nH]3)no2)C1` [Example 24, (4-Fluoro-phenyl)-{(S)-3-[3-(1H-imidazol-2-yl)-[1,2,4]oxadiazol-5-yl]-piperidin-1-yl}-methanone], for which the EC50 fell in the range of 1000 to 10000 nM.

Turning to `Cc1c[nH]c(-c2noc([C@H]3CCCN(C(=O)c4ccc(F)c(F)c4)C3)n2)n1` [Example 79, (3,4-Difluoro-phenyl)-{(S)-3-[3-(4-methyl-1H-imidazol-2-yl)-[1,2,4]oxadiazol-5-yl]-piperidin-1-yl}-methanone], the EC50 was 1000 to 10000 nM.

In the case of `O=C(c1ccc(F)cc1)N1CCC[C@H](n2nnc(-c3ccc[nH]3)n2)C1` [Example 54, (4-Fluoro-phenyl)-{(S)-3-[5-(1H-pyrrol-2-yl)-tetrazol-2-yl]-piperidin-1-yl}-methanone], the EC50 was below 1000 nM.

As to `O=C(c1ccnc(F)c1)N1CCC[C@H](c2nc(-c3cc(F)c[nH]3)no2)C1` [Example 53, (2-Fluoro-pyridin-4-yl)-{(S)-3-[3-(4-fluoro-1H-pyrrol-2-yl)-[1,2,4]oxadiazol-5-yl]-piperidin-1-yl}-methanone], the EC50 was below 1000 nM.

On to `Cc1oncc1C(=O)N1CCC[C@H](c2nc(-c3cc(Cl)c[nH]3)no2)C1` [Example 68, {(S)-3-[3-(4-Chloro-1H-pyrrol-2-yl)-[1,2,4]oxadiazol-5-yl]-piperidin-1-yl}-(5-methyl-isoxazol-4-yl)-methanone], for which the EC50 fell in the range of 1000 to 10000 nM.

For the molecule `Cc1c[nH]c(-c2nc([C@H]3CCCN(C(=O)c4ccc(F)nc4)C3)no2)c1` [Example 28, (6-Fluoro-pyridin-3-yl)-{(S)-3-[5-(4-methyl-1H-pyrrol-2-yl)-[1,2,4]oxadiazol-3-yl]-piperidin-1-yl}-methanone], the EC50 is below 1000 nM.

For the molecule `O=C(c1ccc(F)cc1)N1CCCC(c2noc(-c3ccn[nH]3)n2)C1` (stereo not shown) [Example 13, (4-Fluoro-phenyl)-{3-[5-(2H-pyrazol-3-yl)-[1,2,4]oxadiazol-3-yl]-piperidin-1-yl}-methanone], the EC50 was above 10000 nM.

Turning to `Cc1c[nH]c(-c2noc([C@H]3CCCN(C(=O)c4ccnc(F)c4)C3)n2)c1` [Example 34, (2-Fluoro-pyridin-4-yl)-{(S)-3-[3-(4-methyl-1H-pyrrol-2-yl)-[1,2,4]oxadiazol-5-yl]-piperidin-1-yl}-methanone], the EC50 was below 1000 nM.

In the case of `O=C(c1ccc(F)c(F)c1)N1CCC[C@H](c2nc(-c3ccc[nH]3)no2)C1` [Example 3, (3,4-Difluoro-phenyl)-{(S)-3-[3-(1H-pyrrol-2-yl)-[1,2,4]oxadiazol-5-yl]-piperidin-1-yl}-methanone], the EC50 is below 1000 nM.

On to `Cc1c[nH]c(-c2nc([C@H]3CCCN(C(=O)c4cnoc4C)C3)no2)c1` [Example 29, (5-Methyl-isoxazol-4-yl)-{(S)-3-[5-(4-methyl-1H-pyrrol-2-yl)-[1,2,4]oxadiazol-3-yl]-piperidin-1-yl}-methanone], for which the EC50 is below 1000 nM.

Turning to `O=C(c1ccc(F)cc1)N1CCC[C@H](c2noc(-c3nc(C(F)(F)F)c[nH]3)n2)C1` [Example 55, (4-Fluoro-phenyl)-{(S)-3-[5-(4-trifluoromethyl-1H-imidazol-2-yl)-[1,2,4]oxadiazol-3-yl]-piperidin-1-yl}-methanone], the EC50 lay within 1000 to 10000 nM.

For the molecule `Cc1c[nH]c(-c2nc([C@H]3CCCN(C(=O)c4ccncc4F)C3)no2)c1` [Example 58, (3-Fluoro-pyridin-4-yl)-{(S)-3-[5-(4-methyl-1H-pyrrol-2-yl)-[1,2,4]oxadiazol-3-yl]-piperidin-1-yl}-methanone], the EC50 is below 1000 nM.
